Data published in ChEMBL document CHEMBL3885881, “DrugMatrix”.

Species on record: Rattus norvegicus
Assay: DrugMatrix - Regimen: Daily Repeat
Assay type: toxicity, organism-based, Sprague-Dawley
Parameters: regimen Daily Repeat, gender Male, age 6-8 weeks
Details: in vivo, po, route oral GAVAGE, vehicle 100 % WATER; for ABSOLUTE BASOPHIL / ABSOLUTE EOSINOPHIL / ABSOLUTE LYMPHOCYTE / ABSOLUTE MONOCYTE / ABSOLUTE SEGMENTED NEUTROPHIL / BASOPHIL / EOSINOPHIL / ERYTHROCYTE COUNT / HEMATOCRIT / HEMOGLOBIN / LEUKOCYTE COUNT / LYMPHOCYTE / MEAN CORPUSCULAR HEMOGLOBIN / MEAN CORPUSCULAR HEMOGLOBIN CONCENTRATION / MEAN CORPUSCULAR VOLUME / MONOCYTE / NEUTROPHIL / NUCLEATED RED BLOOD CELLS / PLATELET COUNT: tissue Blood; for ALANINE AMINOTRANSFERASE / ALBUMIN / ALKALINE PHOSPHATASE / ASPARTATE AMINOTRANSFERASE / BLOOD UREA NITROGEN / CARBON DIOXIDE / CHLORIDE / CHOLESTEROL / CREATINE PHOSPHOKINASE / CREATININE / GLUCOSE / LACTATE DEHYDROGENASE / LIPASE / PHOSPHORUS / POTASSIUM / SODIUM / TOTAL BILIRUBIN / TOTAL PROTEIN / URIC ACID: tissue Plasma
[1] = 0 mg/kg, 72 h, dose level Control, time 3 day
[2] = 0 mg/kg, 120 h, dose level Control, time 5 day
[3] = 45 mg/kg, 72 h, dose level Low, time 3 day
[4] = 45 mg/kg, 120 h, dose level Low, time 5 day

Structure (SMILES): CCOC(N)=O
- ABSOLUTE BASOPHIL [1]: 0 CELLS/uL
- ABSOLUTE EOSINOPHIL [1]: 123.17 CELLS/uL
- ABSOLUTE LYMPHOCYTE [1]: 12677.83 CELLS/uL
- ABSOLUTE MONOCYTE [1]: 66.17 CELLS/uL
- ABSOLUTE SEGMENTED NEUTROPHIL [1]: 1149.5 CELLS/uL
- BASOPHIL [1]: 0%
- EOSINOPHIL [1]: 0.83%
- ERYTHROCYTE COUNT [1]: 5.26 x10E6/uL
- HEMATOCRIT [1]: 33.07%
- HEMOGLOBIN [1]: 13.43 G/DL
- LEUKOCYTE COUNT [1]: 14.02 x10E3/uL
- LYMPHOCYTE [1]: 90.17%
- MEAN CORPUSCULAR HEMOGLOBIN [1]: 25.62 pg
- MEAN CORPUSCULAR HEMOGLOBIN CONCENTRATION [1]: 40.65 G/DL
- MEAN CORPUSCULAR VOLUME [1]: 63 fL
- MONOCYTE [1]: 0.5%
- NEUTROPHIL [1]: 8.5%
- NUCLEATED RED BLOOD CELLS [1]: 0.17 /100WBC
- PLATELET COUNT [1]: 1142.83 x10E3/uL
- ALANINE AMINOTRANSFERASE [1]: 45.17 u/L
- ALBUMIN [1]: 3.78 G/DL
- ALKALINE PHOSPHATASE [1]: 340.17 u/L
- ASPARTATE AMINOTRANSFERASE [1]: 77.33 u/L
- BLOOD UREA NITROGEN [1]: 14.67 mg/dL
- CARBON DIOXIDE [1]: 28.67 mmol/L
- CHLORIDE [1]: 101.17 MEQ/L
- CHOLESTEROL [1]: 77.67 mg/dL
- CREATINE PHOSPHOKINASE [1]: 263.67 u/L
- CREATININE [1]: 0.15 mg/dL
- GLUCOSE [1]: 169.33 mg/dL
- LACTATE DEHYDROGENASE [1]: 230 u/L
- LIPASE [1]: 9.67 u/L
- PHOSPHORUS [1]: 11.8 mg/dL
- POTASSIUM [1]: 5.91 MEQ/L
- SODIUM [1]: 142.88 MEQ/L
- TOTAL BILIRUBIN [1]: 0.22 mg/dL
- TOTAL PROTEIN [1]: 5.7 G/DL
- URIC ACID [1]: 1.35 mg/dL
- ABSOLUTE BASOPHIL [2]: 0 CELLS/uL
- ABSOLUTE EOSINOPHIL [2]: 125 CELLS/uL
- ABSOLUTE LYMPHOCYTE [2]: 13809 CELLS/uL
- ABSOLUTE MONOCYTE [2]: 351 CELLS/uL
- ABSOLUTE SEGMENTED NEUTROPHIL [2]: 1581.67 CELLS/uL
- BASOPHIL [2]: 0%
- EOSINOPHIL [2]: 0.67%
- ERYTHROCYTE COUNT [2]: 5.53 x10E6/uL
- HEMATOCRIT [2]: 34.83%
- HEMOGLOBIN [2]: 13.9 G/DL
- LEUKOCYTE COUNT [2]: 15.87 x10E3/uL
- LYMPHOCYTE [2]: 87.5%
- MEAN CORPUSCULAR HEMOGLOBIN [2]: 25.25 pg
- MEAN CORPUSCULAR HEMOGLOBIN CONCENTRATION [2]: 40.08 G/DL
- MEAN CORPUSCULAR VOLUME [2]: 63.05 fL
- MONOCYTE [2]: 2.17%
- NEUTROPHIL [2]: 9.67%
- NUCLEATED RED BLOOD CELLS [2]: 0 /100WBC
- PLATELET COUNT [2]: 1044 x10E3/uL
- ALANINE AMINOTRANSFERASE [2]: 50.67 u/L
- ALBUMIN [2]: 4.33 G/DL
- ALKALINE PHOSPHATASE [2]: 395 u/L
- ASPARTATE AMINOTRANSFERASE [2]: 86 u/L
- BLOOD UREA NITROGEN [2]: 15.33 mg/dL
- CARBON DIOXIDE [2]: 29.33 mmol/L
- CHLORIDE [2]: 101.5 MEQ/L
- CHOLESTEROL [2]: 71.33 mg/dL
- CREATINE PHOSPHOKINASE [2]: 323.17 u/L
- CREATININE [2]: 0.18 mg/dL
- GLUCOSE [2]: 145.67 mg/dL
- LACTATE DEHYDROGENASE [2]: 389.5 u/L
- LIPASE [2]: 9.83 u/L
- PHOSPHORUS [2]: 11.35 mg/dL
- POTASSIUM [2]: 6.39 MEQ/L
- SODIUM [2]: 142.77 MEQ/L
- TOTAL BILIRUBIN [2]: 0.18 mg/dL
- TOTAL PROTEIN [2]: 6.1 G/DL
- URIC ACID [2]: 1.52 mg/dL
- ABSOLUTE BASOPHIL [3]: 0 CELLS/uL
- ABSOLUTE EOSINOPHIL [3]: 0 CELLS/uL
- ABSOLUTE LYMPHOCYTE [3]: 12480 CELLS/uL
- ABSOLUTE MONOCYTE [3]: 82.67 CELLS/uL
- ABSOLUTE SEGMENTED NEUTROPHIL [3]: 1104 CELLS/uL
- BASOPHIL [3]: 0%
- EOSINOPHIL [3]: 0%
- ERYTHROCYTE COUNT [3]: 5.25 x10E6/uL
- HEMATOCRIT [3]: 34.27%
- HEMOGLOBIN [3]: 13.87 G/DL
- LEUKOCYTE COUNT [3]: 13.67 x10E3/uL
- LYMPHOCYTE [3]: 91.33%
- MEAN CORPUSCULAR HEMOGLOBIN [3]: 26.43 pg
- MEAN CORPUSCULAR HEMOGLOBIN CONCENTRATION [3]: 40.47 G/DL
- MEAN CORPUSCULAR VOLUME [3]: 65.23 fL
- MONOCYTE [3]: 0.67%
- NEUTROPHIL [3]: 8%
- NUCLEATED RED BLOOD CELLS [3]: 0.33 /100WBC
- PLATELET COUNT [3]: 1224 x10E3/uL
- ALANINE AMINOTRANSFERASE [3]: 48.67 u/L
- ALBUMIN [3]: 3.73 G/DL
- ALKALINE PHOSPHATASE [3]: 327 u/L
- ASPARTATE AMINOTRANSFERASE [3]: 72 u/L
- BLOOD UREA NITROGEN [3]: 14 mg/dL
- CARBON DIOXIDE [3]: 31.33 mmol/L
- CHLORIDE [3]: 100.67 MEQ/L
- CHOLESTEROL [3]: 75.67 mg/dL
- CREATINE PHOSPHOKINASE [3]: 181.67 u/L
- CREATININE [3]: 0.14 mg/dL
- GLUCOSE [3]: 154 mg/dL
- LACTATE DEHYDROGENASE [3]: 151.67 u/L
- LIPASE [3]: 10 u/L
- PHOSPHORUS [3]: 12.13 mg/dL
- POTASSIUM [3]: 7.17 MEQ/L
- SODIUM [3]: 142.87 MEQ/L
- TOTAL BILIRUBIN [3]: 0.17 mg/dL
- TOTAL PROTEIN [3]: 5.53 G/DL
- URIC ACID [3]: 1.63 mg/dL
- ABSOLUTE BASOPHIL [4]: 0 CELLS/uL
- ABSOLUTE EOSINOPHIL [4]: 0 CELLS/uL
- ABSOLUTE LYMPHOCYTE [4]: 10640.67 CELLS/uL
- ABSOLUTE MONOCYTE [4]: 292.67 CELLS/uL
- ABSOLUTE SEGMENTED NEUTROPHIL [4]: 1133.33 CELLS/uL
- BASOPHIL [4]: 0%
- EOSINOPHIL [4]: 0%
- ERYTHROCYTE COUNT [4]: 5.57 x10E6/uL
- HEMATOCRIT [4]: 35.5%
- HEMOGLOBIN [4]: 14.37 G/DL
- LEUKOCYTE COUNT [4]: 12.07 x10E3/uL
- LYMPHOCYTE [4]: 88.67%
- MEAN CORPUSCULAR HEMOGLOBIN [4]: 25.77 pg
- MEAN CORPUSCULAR HEMOGLOBIN CONCENTRATION [4]: 40.47 G/DL
- MEAN CORPUSCULAR VOLUME [4]: 63.8 fL
- MONOCYTE [4]: 2.33%
- NEUTROPHIL [4]: 9%
- NUCLEATED RED BLOOD CELLS [4]: 0 /100WBC
- PLATELET COUNT [4]: 1349.67 x10E3/uL
- ALANINE AMINOTRANSFERASE [4]: 45 u/L
- ALBUMIN [4]: 4.53 G/DL
- ALKALINE PHOSPHATASE [4]: 393.33 u/L
- ASPARTATE AMINOTRANSFERASE [4]: 72 u/L
- BLOOD UREA NITROGEN [4]: 14.67 mg/dL
- CARBON DIOXIDE [4]: 33 mmol/L
- CHLORIDE [4]: 101 MEQ/L
- CHOLESTEROL [4]: 75 mg/dL
- CREATINE PHOSPHOKINASE [4]: 138.67 u/L
- CREATININE [4]: 0.19 mg/dL
- GLUCOSE [4]: 156.33 mg/dL
- LACTATE DEHYDROGENASE [4]: 85.67 u/L
- LIPASE [4]: 10 u/L
- PHOSPHORUS [4]: 11.27 mg/dL
- POTASSIUM [4]: 6.72 MEQ/L
- SODIUM [4]: 144.8 MEQ/L
- TOTAL BILIRUBIN [4]: 0.23 mg/dL
- TOTAL PROTEIN [4]: 6.3 G/DL
- URIC ACID [4]: 1.6 mg/dL
